One series in a line: in vitro. The class given is cell-based. The settings on record: L4 larvae, up to 1000 μM, read-out: C. elegans LC50. How it is done: Synchronized fourth-stage (L4) C. elegans larvae were distributed into 96-well plates containing M9 buffer (60 larvae/well). […] After 24 h incubation at 21 °C, larval survival was determined by motility: larvae unresponsive to gentle mechanical stimulation were classified as nonviable. […] Assays were performed in triplicate and repeated three times.

A further series concerns A. cantonensis L1 larvae. Nature of the series: Anthelmintic activity against A. cantonensis first-stage larvae (motility/viability, 24 h). The class given is cell-based, Angiostrongylus cantonensis. The settings on record: for EC50: 24 h, read-out: A. cantonensis EC50 (μM ± SEM) L1; for activity against the larvae (in words): A. cantonensis larvae in vitro. As to the method:
(§1) Larvae were washed three times in RPMI 1640 medium supplemented with 100 U/mL penicillin and 100 μg/mL streptomycin. Approximately 50 larvae were allocated into individual wells of a 96-well plate containing 200 μL of final volume of RPMI medium. […] Approximately 50 larvae were transferred to each well of a 96-well plate containing RPMI medium. […] Larval viability was monitored at 0 and 24 h post-treatment. […] Assays were performed in triplicate and repeated three times.

A short description of series [1]: Cytotoxicity in HaCat cells (MTT, 72 h). The class given is cell-based. Conditions: human, from 500 μM. How it is done:
Cytotoxicity was assessed using the MTT assay. After 72 h, MTT solution was added, followed by 3 h of incubation. Absorbance was measured at 595 nm using an Epoch Microplate Spectrophotometer (BioTek Instruments, Winooski, VT, USA). Assays were performed in triplicate and repeated three times.

A further series concerns A. cantonensis L3 larvae. In words: Anthelmintic activity against A. cantonensis infective third-stage larvae (motility/viability, 24 h). Type of series: cell-based, Angiostrongylus cantonensis. Conditions: in vitro, 21 °C, read-out: A. cantonensis EC50 (μM ± SEM) L3. How it is done: as §1
Setting [2] is: Angiostrongylus cantonensis, first-stage larvae (L1), in vitro, 21 °C.
The mark [3] stands for this setting: first-stage larvae (L1), in vitro, 21 °C.

Like-named read-outs stand apart in the source and are kept apart here.

What is called LC50 is the concentration that kills 50% of the test population. For orientation: EC50 means the concentration at which the effect is half-maximal. By CC50 is commonly meant the concentration giving 50% cytotoxicity. Regarding `COc1ccc(/C=C/C(=O)N2CCN(C(c3ccccc3)c3ccccc3)CC2)cc1` [compound 3b, (E)-1-(4-Benzhydrylpiperazin-1-yl)-3-(4-methoxyphenyl)prop-2-en-1-one], the LC50 at 24 h in the series “in vitro” is greater than 1000 µM. Besides, in the series on A. cantonensis L1 larvae (setting [2]), the EC50 is greater than 100 µM. Also, the CC50 at 72 h in series [1] (HaCat cells) was greater than 500 µM.

Regarding `Clc1ccc(C(c2ccccc2)N2CCN(C/C=C/c3ccccc3)CC2)cc1` (stereo not shown) [compound 2, 1-[(4-Chlorophenyl)-phenyl-methyl]-4-[(E)-cinnamyl]piperazine, reference compound], the EC50 was 8.6 ± 1.1 µM in the series on A. cantonensis L3 larvae (Angiostrongylus cantonensis) and 4.2 ± 1.1 µM in the series with A. cantonensis L1 larvae (setting [2]). For the same compound, in “in vitro”, the LC50 at 24 h was greater than 1000 µM. For the same compound, the CC50 at 72 h in series [1] (HaCat cells) was greater than 500 µM.

Consider `COc1cc(/C=C/C(=O)N2CCN(C(c3ccccc3)c3ccccc3)CC2)ccc1O` [compound 3d, (E)-1-(4-Benzhydrylpiperazin-1-yl)-3-(4-hydroxy-3-methoxy-phenyl)prop-2-en-1-one], for which the LC50 at 24 h in “in vitro” was greater than 1000 µM. For the same compound, the EC50 in the series with A. cantonensis L1 larvae (setting [2]) was greater than 100 µM. Moreover, the CC50 at 72 h in series [1] (HaCat cells) is greater than 500 µM.

Take `CCCSc1ccc2nc(NC(=O)OC)[nH]c2c1` [albendazole, reference compound]: in “in vitro”, the LC50 at 24 h stood at 14.8 ± 1.5 µM. In addition, the EC50 in the series with A. cantonensis L1 larvae (Angiostrongylus cantonensis) was determined as 14.2 ± 1.1 µM. Moreover, the CC50 at 72 h in series [1] was greater than 500 µM.

For the compound `C(=C\c1ccccc1)/CN1CCN(C(c2ccccc2)c2ccccc2)CC1` [compound 1, cinnarizine, reference compound], the LC50 at 24 h in “in vitro” was greater than 1000 µM.

For the compound `O=C(/C=C/c1ccc(O)c(O)c1)N1CCN(C(c2ccccc2)c2ccccc2)CC1` [compound 3e, (E)-1-(4-Benzhydrylpiperazin-1-yl)-3-(3,4-dihydroxyphenyl)prop-2-en-1-one], the LC50 at 24 h in “in vitro” was greater than 1000 µM. Moreover, the EC50 in the series on A. cantonensis L1 larvae (setting [2]) is greater than 100 µM. In series [1] (HaCat cells), this compound registered a CC50 at 72 h greater than 500 µM.

Turning to `O=C(/C=C/c1ccc(O)cc1)N1CCN(C(c2ccccc2)c2ccccc2)CC1` [compound 3c, (E)-1-(4-Benzhydrylpiperazin-1-yl)-3-(4-hydroxyphenyl)prop-2-en-1-one], in “in vitro”, the LC50 at 24 h was greater than 1000 µM. The EC50 with A. cantonensis L1 larvae (setting [2]) was greater than 100 µM. In addition, in series [1] (HaCat cells), the CC50 at 72 h was greater than 500 µM.

Take `O=C(/C=C/c1ccccc1)N1CCN(Cc2ccccc2)CC1` [compound 3a, (E)-1-(4-Benzylpiperazin-1-yl)-3-phenyl-prop-2-en-1-one]: the EC50 is 18.1 ± 1.5 µM in the series on A. cantonensis L3 larvae (Angiostrongylus cantonensis), 8.2 µM with A. cantonensis L1 larvae (setting [2]) and 8.7 ± 1.1 µM with A. cantonensis L1 larvae (setting [3]). Further, in the series “in vitro”, the LC50 at 24 h was greater than 1000 µM. Moreover, the CC50 at 72 h in series [1] (HaCat cells) was greater than 500 µM.

Turning to `Clc1ccc(CN2CCN(C/C=C/c3ccccc3)CC2)cc1` [compound 2a, 1-[(4-Chlorophenyl)methyl]-4-[(E)-cinnamyl]piperazine], the LC50 at 24 h in the series “in vitro” was greater than 1000 µM. In the series on A. cantonensis L1 larvae, the “activity against the larvae (in words)” value was “no appreciable activity”. For the same compound, the EC50 with A. cantonensis L1 larvae (setting [2]) is greater than 100 µM. In series [1] (HaCat cells), the CC50 at 72 h was greater than 500 µM.

`C(=C\c1ccccc1)/CN1CCN(Cc2ccccc2)CC1` [compound 1a, 1-Benzyl-4-[(E)-cinnamyl]piperazine]: the median lethal concentration (LC50) at 24 h in “in vitro” was greater than 1000 µM. For the same compound, the “activity against the larvae (in words)” value in the series with A. cantonensis L1 larvae is “no appreciable activity”. For the same compound, the EC50 in the series with A. cantonensis L1 larvae (setting [2]) was greater than 100 µM. Also, the CC50 at 72 h in series [1] (HaCat cells) was greater than 500 µM.

Regarding `COc1ccc(/C=C/CN2CCN(C(c3ccccc3)c3ccccc3)CC2)cc1` [compound 1b, 1-Benzhydryl-4-[(E)-3-(4-methoxyphenyl)allyl]piperazine], the EC50 was 8.2 to 9.3 µM in the series with A. cantonensis L3 larvae (Angiostrongylus cantonensis), 8.7 ± 0.9 µM in the series with A. cantonensis L3 larvae, 8.2 to 9.3 µM in the series with A. cantonensis L1 larvae (setting [2]) and 8.2 ± 1.2 µM in the series with A. cantonensis L1 larvae (setting [3]). In addition, the LC50 at 24 h in “in vitro” was greater than 1000 µM. Moreover, the CC50 at 72 h in series [1] (HaCat cells) was greater than 500 µM.

Consider `COc1ccc(/C=C/CN2CCN(C(c3ccccc3)c3ccc(Cl)cc3)CC2)cc1` (stereo not shown) [compound 2b, 1-[(4-Chlorophenyl)-phenyl-methyl]-4-[(E)-3-(4-methoxyphenyl)allyl]piperazine], for which the EC50 in the series with A. cantonensis L3 larvae (Angiostrongylus cantonensis) is 8.2 to 9.3 µM; with A. cantonensis L3 larvae, 8.8 ± 1.2 µM; in the series with A. cantonensis L1 larvae (setting [2]), 8.2 to 9.3 µM; in the series with A. cantonensis L1 larvae (setting [3]) it was 9.3 ± 0.9 µM. The LC50 at 24 h in the series “in vitro” is greater than 1000 µM. This compound also had a CC50 at 72 h in series [1] (HaCat cells) greater than 500 µM.

`O=C(/C=C/c1ccccc1)N1CCN(C(c2ccccc2)c2ccccc2)CC1` [compound 3, (E)-1-(4-Benzhydrylpiperazin-1-yl)-3-phenyl-prop-2-en-1-one]: in the series “in vitro”, the LC50 at 24 h was greater than 1000 µM. In the series on A. cantonensis L1 larvae, the “activity against the larvae (in words)” value is recorded as “no activity”. Besides, in the series with A. cantonensis L1 larvae (setting [2]), the EC50 was greater than 100 µM. In addition, in series [1] (HaCat cells), the CC50 at 72 h was greater than 500 µM.
